Data taken from patent US6403563B1, “Antitumor composition containing a synergistic combination of an anthracycline derivative with a camptothecin derivate” (Pharmacia & Upjohn S.p.A., priority 1998, dated 2002).
Values joined by “and” are separate entries in the source; they are usually repeats but may differ in a detail not shown here. Equal entries are not always repeated.

Experiments:
[1] = test system: disseminated L1210 murine leukemia; test: Antileukemic activity against disseminated L1210 leukemia in mice; format: in vivo
Text: For these experiments Ia was solubilized in [Cremophor®/EtOH=6.5:3.5]/[normal saline]=20/80 v/v, while CPT-11 was solubilized in water.

[2] = Crossing of the blood brain barrier
[3] = test system: intracranially implanted P388 tumor cells; test: Activity against intracranially transplanted P388 murine leukemia; format: in vivo, mice
Protocol: Brain tumors/metastases are generally unresponsive largely because cytotoxic drugs fail to cross the blood brain barrier. […] The compound was administered i.v. on days 1,5,9. Results reported in Tab.

[4] = CPT-11 alone 20 mg/kg/day iv days +1,2
[5] = Ia alone 2.9 mg/kg/day iv day +3
[6] = Ia alone 3.8 mg/kg/day iv day +3

| SMILES | LTS (Long Term Survivors >60 days) [1, 4] | Tox (number of toxic deaths/number of mice) [1, 4] | ILS % (increase in life span) ([1]; CPT-11 alone 20 mg/kg/day iv days +1,2, L1210 10^5/mouse iv day 0) [%] | crossing of the blood brain barrier [2] | ILS % (increase in life span) [1, 5] [%] | LTS (Long Term Survivors >60 days) [1, 5] | Tox (number of toxic deaths/number of mice) [1, 5] | ILS % (increase in life span) [1, 6] [%] | LTS (Long Term Survivors >60 days) [1, 6] | Tox (number of toxic deaths/number of mice) [1, 6] | Tox (number of toxic deaths/number of mice) ([3]; Ia 2.1 mg/kg/day i.v. days 1, 5, 9) | ILS % (increase in life span) ([3]; Ia 2.1 mg/kg/day i.v. days 1, 5, 9, P388 10^4/mouse intracranially day 0) [%] | Tox (number of toxic deaths/number of mice) ([3]; Ia 2.7 mg/kg/day i.v. days 1, 5, 9) | ILS % (increase in life span) ([3]; Ia 2.7 mg/kg/day i.v. days 1, 5, 9 (optimal cumulative dose 8.1 mg/kg)) [%] |
| --- | --- | --- | --- | --- | --- | --- | --- | --- | --- | --- | --- | --- | --- | --- |
| CCc1c2c(nc3ccc(OC(=O)N4CCC(N5CCCCC5)CC4)cc13)-c1cc3c(c(=O)n1C2)COC(=O)[C@]3(O)CC [CPT-11, Irinotecan, reference compound] | 1/10 | without toxicity and 0/10 | 100 |  |  |  |  |  |  |  |  |  |  |  |
| CC(=O)C1(O)Cc2c(O)c3c(c(O)c2C(OC2CC(N4CC4)C(OS(C)(=O)=O)C(C)O2)C1)C(=O)c1ccccc1C3=O (centres unmarked) [Ia, 4-demethoxy-3′-deamino-3′-aziridinyl-4′-methansulfonyl daunorubicin] |  |  |  | crosses the blood brain barrier | 92 | 0/10 | without toxicity and 0/10 | 108 | 0/10 | without toxicity and 0/10 | 0/20 | 44 | 1/20 | 46 |
